Patent publication US20080109040A1, “METHOD OF TREATING ARRHYTHMIAS” (priority 2002, published 2008)
Read-outs that look alike come from different tables or passages of the source. Marks after values point to notes of the source that are not given here.

Experiments:
[1] = tested on: anesthetized dog; assay: QT prolongation and arrhythmia induction in anesthetized dog with AV block and phenylephrine challenge; details: for Arrhythmia occurrence: individual dogs; for Mean ERP LV / Mean ERP RY: sot 8 + 4
Method: Dogs were pretreated with Atravet (0.07 mg/kg sc) and then 15 minutes later anesthetized with ketamine (5.3 mg/kg iv) and valium (0.25 mg/kg iv) followed by isoflurane (1-2%), intubated and subjected to mechanical ventilation. They were then subjected to AV block with radiofrequency ablation. A median sternotomy was performed and catheters were inserted into a femoral artery for blood pressure (BP) recording and into both femoral veins for infusion of test drugs. Bipolar electrodes were inserted into both ventricles for programmed stimulation determination of refractory periods (extrastimulus technique), as well as for evaluation of QT interval and QRS duration at various controlled basic cycle lengths (BCLs). TdP was induced by challenges of phenylephrine, which were given as bolus intravenous doses of 10, 20, 30, 40 and 50 μg/kg. After each dose, the ECG was monitored continuously to detect arrhythmias. […] Test drug effects were evaluated as per protocols below.
Data are presented as the mean ±S.E.M. Statistical comparisons were made with Student's t test. A 2-tailed probability<0.05 was taken to indicate statistical significance. In data tables, * denotes P<0.05, **P<0.01.
Group 2 (6 dogs): Five dogs received ranolazine as a 0.5 mg/kg iv load followed by a first, a second and a third continuous iv infusion of 1.0, 3.0 and 15 mg/kg/hr, respectively. One dog received ranolazine as a 1.5 mg/kg iv load followed by infusions of 15 and 30 mg/kg/hr. […] The phenylephrine challenges were then given, with all doses given at each drug infusion rate, and any arrhythmias monitor.

[2] = tested on: guinea pig ventricular myocytes; assay: Action potential duration, EADs and triggered activity in guinea pig ventricular myocytes
Method: Single ventricular myocytes were isolated from the hearts of adult, male guinea pigs (Harlan). In brief, the hearts were perfused with warm (35° C.) and oxygenated solutions in the following order: 1) Tyrode solution containing (in mmol/L) 140 NaCl, 4.6 KCl, 1.8 CaCl2, 1.1 MgSO4, 10 glucose and 5 HEPES, pH 7.4, for 5 minutes; 2) Ca^2+-free solution containing (in mmol/L) 100 NaCl, 30 KCl, 2 MgSO4, 10 glucose, 5 HEPES, 20 taurine, and 5 pyruvate, pH 7.4, for 5 minutes; and 3) Ca^2+-free solution containing sollagenase (120 units/ml) and albumin (2 mg/ml), for 20 minutes. At the end of the perfusion, the ventricles were removed, minced, and gently shaken for 10 minutes in solution #3. Isolated cells were harvested from the cell suspension.
Myocytes were placed into a recording chamber and superfused with Tyrode solution at 35° C. Drugs were applied via the superfusate. Action potentials were measured using glass microelectrodes filled with a solution containing (in mmol/L) 120 K-aspartate, 20 KCl, 1 MgCl2, 4 Na2ATP, 0.1 Na3GTP, 10 glucose, 1 EGTA and 10 HEPES (pH 7.2). Microelectrode resistance was 1-3 MΩ. An Axopatch-200 amplifier, a DigiData-1200A interface and pCLAMP6 software were used to perform electrophysiological measurements. Action potentials were induced by 5-ms depolarizing pulses applied at various frequencies as indicated. The duration of action potential was measured at 50% (APD50) and 90% (APD90) repolarization.
1) Ventricular myocytes were electrically stimulated at a frequency of 0.5, 1 or 2 Hz. Each myocyte was treated with 3, 10 and 30 μmol/L ranolazine. The effect of ranolazine on action potential duration at each pacing frequency was determined from 4 myocytes.
2) Action potentials were elicited at a frequency of 0.25 Hz, and the effect of ranolazine (10 μmol/L) on action potential duration was examined in the presence of 5 μmol/L quinidine. Experiments were performed on 4 myocytes.
Following the procedures and protocols of Example 21, guinea pig ventricular myocytes were electrically stimulated in the presence of ranolazine either alone or in the presence of ATX II [a sea anemone toxin known to mimic LQT3 syndrome by slowing Na^+-channel inactivation from the open state and thereby increasing the peak and late Na^+ current (INa) of cardiomyocytes]. ATXII is known to induce early afterdepolarizations (EADs) and triggered activity and ventricular tachycardia.
Action potentials were recorded using the whole-cell patch-electrode technique. Ventricular monophasic action potentials and electrograms were recorded from isolated hearts.
The ventricular APD of guinea pigs isolated myocytes and hearts was measured, respectively, at 50% (APD50) and 90% (MAPD90) repolarization.

[3] = tested on: guinea pig isolated heart; assay: K-H buffer perfused guinea pig isolated heart: MAP duration, EADs and VT
Description: To study the effect of ranolazine on ATXII induced MAP (monophasic action potential) duration prolongation, EADs and ventricular tachyarrhythmia (VT), the K—H buffer perfused guinea pig isolated heart model was used.
Multiple EADs and sustained depolarizations were frequently observed.

With `CC(C)NCC(O)c1ccc(NS(C)(=O)=O)cc1` (racemic) [sotalol, reference compound] the Arrhythmia occurrence ([1]; Sot 8 + 4 plus phenylephrine 10 μg/kg, — = none) was “death”, the Arrhythmia occurrence ([1]; Sot 8 + 4 plus phenylephrine 30 μg/kg) was “death” and the Arrhythmia occurrence ([1]; Sot 8 + 4 plus phenylephrine 40 μg/kg) was “tdp VF death”. The Arrhythmia occurrence ([1]; Sot 8 + 4 plus phenylephrine 50 μg/kg) was “death”, the “Effect on QRS duration” value ([1]; dog, in vivo) was “did not affect” and the “Mean ERP LV” value ([1]; BCL 300) was 201.25 ± 18.75 ms. For the same compound, the “Mean ERP RY” value ([1]; BCL 300) was 181.33 ± 8.21** ms, the “Mean ERP LV” value ([1]; BCL 400) was 226.25 ± 21.25 ms and the “Mean ERP RY” value ([1]; BCL 400) was 195.67 ± 7.53** ms. For the same compound, the “Mean ERP LV” value ([1]; BCL 600) was 262.50 ± 27.5* ms, the “Mean ERP RY” value ([1]; BCL 600) was 223.50 ± 9.07** ms and the “Mean ERP LV” value ([1]; BCL 1000) was 286.25 ± 16.25* ms. The “Mean ERP RY” value ([1]; BCL 1000) was 255.50 ± 9.56** ms and the “Death from torsade de pointes degenerating to ventricular fibrillation” value ([1]; sotalol infusion and a phenylephrine bolus) was “All the dogs eventually died”.
For `C=C[C@H]1C[N@@]2CC[C@H]1C[C@@H]2[C@@H](O)c1ccnc2ccc(OC)cc12` [quinidine, reference compound], the “Effect on duration of action potential” value ([2]; quinidine 5 μmol/L, 0.25 Hz) was “increased the duration of action potential”.
For `Cc1cccc(CCN2CCC(C(=O)c3ccc(NS(C)(=O)=O)cc3)CC2)n1` [E-4031, reference compound], the “Increase of APD50” value ([2]; E-4031 1 μmol/L, absence of ATX-II) was 11±2%, the “Increase of APD50” value ([2]; E-4031 1 μmol/L, presence of ATX-II) was 104±41% and the “Increase of MAPD90” value ([3]; E-4031 1 μmol/L alone) was 30.1±0.1%. For the same compound, the “Increase of MAPD90” value ([3]; E-4031 applied with ATX-II) was 127.1±0.4%.
With “ATXII: a sea anemone toxin known to mimic LQT3 syndrome by slowing Na+-channel inactivation from the open state [reference compound]” the “Increase of APD50” value ([2]; ATX-II 3 nmol/L alone) was 6±2%, the “Induction of EADs” value ([2]; ATX-II 10-20 nmol/L) was “induced EADs in all cells” and the “APD50 in the presence of ATX-II” value ([2]; ATX-II 10-20 nmol/L, n=24) was 1,148±49 ms. The “Induction of EADs” value ([2]; ATXII 10-40 nmol/L) was “induced EADs in all cells”, the “APD50 in the presence of ATXII” value ([2]; ATXII 10-40 nmol/L, n=20) was 1,154±61 ms and the “Increase of MAPD90” value ([3]; ATX-II 7 nmol/L alone) was 32±0.1%. For the same compound, the “Isolated hearts with EADs and (polymorphic) VT” value ([3]; ATXII 10-20 nM) was 10/14, the “Prolongation of MAPD90” value ([3]; ATXII 10-20 nM, 4 hearts without rapid ventricular arrhythmia) was 6% and the “Isolated hearts with EADs and (polymorphic) VT” value ([3]; ATXII 10-20 nM, listed as ATX-II) was 10 of 14.
`CCS(=O)(=O)N(C)[C@H]1c2cc(C#N)ccc2OC(C)(C)[C@@H]1O` [293B, reference compound] was tested, and the “Induction of EADs” value [2] was “induced EADs in the presence, but not in the absence, of ATX-II”, the “Increase of APD50” value ([2]; 293B 30 μmol/L, absence of ATX-II) was 40±7% and the “Increase of APD50” value ([2]; 293B 30 μmol/L, presence of ATX-II) was 202±59%. For the same compound, the “Increase of MAPD90” value ([3]; 293B 1 μmol/L alone) was 6.3±0.2% and the “Increase of MAPD90” value ([3]; 293B applied with ATX-II) was 31.6±0.1%.
